Here are results for 26 compounds from patent US10730863B2, “Bridged bicyclic compounds as farnesoid X receptor modulators” (BRISTOL-MYERS SQUIBB COMPANY, priority 2017, dated 2020).

One may read the EC50 as the concentration that produces a half-maximal response.

The target of the experiment is FXR (Homo sapiens (Human), UniProt Q96RI1). Nature of the experiment: FXR EC50 (FXR agonist activity reported with each example). Format: cell-based.
Chain of FXR (Q96RI1 262-486): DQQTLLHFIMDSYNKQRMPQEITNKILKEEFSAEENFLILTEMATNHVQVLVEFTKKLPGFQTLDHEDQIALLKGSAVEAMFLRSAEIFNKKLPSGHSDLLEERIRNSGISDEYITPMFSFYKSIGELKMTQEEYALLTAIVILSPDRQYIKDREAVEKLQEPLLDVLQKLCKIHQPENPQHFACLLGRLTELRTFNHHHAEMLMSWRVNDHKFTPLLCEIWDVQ
`O=C(O)c1cc(OCC23CCC(COCc4c(-c5c(Cl)cncc5Cl)noc4C4CC4)(CC2)CC3)cc(C(F)(F)F)c1` [Example 464, 3-((4-(((5-cyclopropyl-3-(3,5-dichloropyridin-4-yl)isoxazol-4-yl)methoxy)methyl)bicyclo[2.2.2]octan-1-yl)methoxy)-5-(trifluoromethyl)benzoic acid] had an EC50 of 0.3 µM.

`O=C(O)c1csc(OCC23CCC(OCc4c(-c5c(Cl)cncc5Cl)noc4C4CC4)(CC2)CC3)n1` [Example 465, 2-((4-((5-cyclopropyl-3-(3,5-dichloropyridin-4-yl)isoxazol-4-yl)methoxy)bicyclo[2.2.2]octan-1-yl)methoxy)thiazole-4-carboxylic acid] yielded an EC50 of 0.18 µM.

For `O=C(O)c1cnc2ccc(OCC34CCC(OCc5c(-c6c(Cl)cncc6Cl)noc5C5CC5)(CC3)CC4)nn12` [Example 466, 6-((4-((5-cyclopropyl-3-(3,5-dichloropyridin-4-yl)isoxazol-4-yl)methoxy)bicyclo[2.2.2]octan-1-yl)methoxy)imidazo[1,2-b]pyridazine-3-carboxylic acid], a half-maximal effect (EC50) was put at 0.39 µM.

Take `O=C(O)c1cccc(-c2noc(C34CCC(/C=C/c5c(-c6c(Cl)cncc6Cl)noc5C5CC5)(CC3)CO4)n2)c1` [Example 467, (E)-3-(5-(4-(2-(5-cyclopropyl-3-(3,5-dichloropyridin-4-yl)isoxazol-4-yl)vinyl)-2-oxabicyclo[2.2.2]octan-1-yl)-1,2,4-oxadiazol-3-yl)benzoic acid]: the EC50 worked out at 0.26 µM.

The compound `O=C(O)c1cc(OCC23CCC(/C=C/c4c(-c5c(Cl)cncc5Cl)noc4C4CC4)(CC2)CO3)cc(C(F)(F)F)c1` [Example 468, (E)-3-((4-(2-(5-cyclopropyl-3-(3,5-dichloropyridin-4-yl)isoxazol-4-yl)vinyl)-2-oxabicyclo[2.2.2]octan-1-yl)methoxy)-5-(trifluoromethyl)benzoic acid] returned a concentration for a half-maximal effect (EC50) of 0.07 µM.

Compound `O=C(O)c1cc(F)cc2nc(OCC34CCC(/C=C/c5c(-c6c(Cl)cncc6Cl)noc5C5CC5)(CC3)CC4)sc12` [Example 469, (E)-2-((4-(2-(5-cyclopropyl-3-(3,5-dichloropyridin-4-yl)isoxazol-4-yl)vinyl)bicyclo[2.2.2]octan-1-yl)methoxy)-5-fluorobenzo[d]thiazole-7-carboxylic acid] had a half-maximal effective concentration (EC50) of 0.19 µM.

Consider `COc1cc(OCC23CCC(/C=C/c4c(-c5c(Cl)cncc5Cl)noc4C4CC4)(CC2)CO3)cc(C(=O)O)c1` [Example 470, (E)-3-((4-(2-(5-cyclopropyl-3-(3,5-dichloropyridin-4-yl)isoxazol-4-yl)vinyl)-2-oxabicyclo[2.2.2]octan-1-yl)methoxy)-5-methoxybenzoic acid], for which the EC50 amounted to 0.11 µM.

In the case of `O=C(O)c1cc(OC(F)F)c2cc(OCC34CCC(OCc5c(-c6c(Cl)cncc6Cl)noc5C5CC5)(CC3)CO4)ccc2n1` [Example 471, 6-((4-((5-cyclopropyl-3-(3,5-dichloropyridin-4-yl)isoxazol-4-yl)methoxy)-2-oxabicyclo[2.2.2]octan-1-yl)methoxy)-4-(difluoromethoxy)quinoline-2-carboxylic acid], a half-maximal effect (EC50) was put at 0.2 µM.

Take `O=C(O)c1cc(OC(F)F)c2cc(OCC34CCC(/C=C/c5c(-c6c(Cl)cncc6Cl)noc5C5CC5)(CC3)OC4)ccc2n1` [Example 472, (E)-6-((1-(2-(5-cyclopropyl-3-(3,5-dichloropyridin-4-yl)isoxazol-4-yl)vinyl)-2-oxabicyclo[2.2.2]octan-4-yl)methoxy)-4-(difluoromethoxy)quinoline-2-carboxylic acid]: the midpoint of the response, the EC50, lay at 0.29 µM.

In turn, `O=C(O)c1cc(OCC23CCC(/C=C/c4c(-c5c(Cl)cncc5Cl)noc4C4CC4)(CC2)OC3)cc(C(F)(F)F)c1` [Example 473, (E)-3-((1-(2-(5-cyclopropyl-3-(3,5-dichloropyridin-4-yl)isoxazol-4-yl)vinyl)-2-oxabicyclo[2.2.2]octan-4-yl)methoxy)-5-(trifluoromethyl)benzoic acid] came in with an EC50 of 0.32 µM.

`COc1cc(OCC23CCC(/C=C/c4c(-c5c(Cl)cncc5Cl)noc4C4CC4)(CC2)OC3)cc(C(=O)O)c1` [Example 474, (E)-3-((1-(2-(5-cyclopropyl-3-(3,5-dichloropyridin-4-yl)isoxazol-4-yl)vinyl)-2-oxabicyclo[2.2.2]octan-4-yl)methoxy)-5-methoxybenzoic acid] had an EC50 of 0.49 µM.

`CC(C)(C#N)c1ccc(C23CCC(/C=C/c4c(-c5c(Cl)cncc5Cl)noc4C4CC4)(CC2)CO3)cc1` [Example 475, (E)-2-(4-(4-(2-(5-cyclopropyl-3-(3,5-dichloropyridin-4-yl)isoxazol-4-yl)vinyl)-2-oxabicyclo[2.2.2]octan-1-yl)phenyl)-2-methylpropanenitrile] had a half-maximal effective concentration (EC50) of 1.5 µM.

`CC(C)(C#N)c1ccc(C23CCC(/C=C/c4c(-c5ccccc5C(F)(F)F)noc4C4CC4)(CC2)CO3)cc1` [Example 476, (E)-2-(4-(4-(2-(5-cyclopropyl-3-(2-(trifluoromethyl)phenyl)isoxazol-4-yl)vinyl)-2-oxabicyclo[2.2.2]octan-1-yl)phenyl)-2-methylpropanenitrile] registered an EC50 of 0.69 µM.

As to `CC(C)(C(=O)O)c1ccc(C23CCC(/C=C/c4c(-c5ccccc5C(F)(F)F)noc4C4CC4)(CC2)CO3)cc1` [Example 477, (E)-2-(4-(4-(2-(5-cyclopropyl-3-(2-(trifluoromethyl)phenyl)isoxazol-4-yl)vinyl)-2-oxabicyclo[2.2.2]octan-1-yl)phenyl)-2-methylpropanoic acid], the midpoint of the response, the EC50, lay at 1.5 µM.

The compound `O=C(O)c1cc(-c2noc(C34CCC(/C=C/c5c(-c6c(Cl)cncc6Cl)noc5C5CC5)(CC3)CO4)n2)cc(C(F)(F)F)c1` [Example 478, (E)-3-(5-(4-(2-(5-cyclopropyl-3-(3,5-dichloropyridin-4-yl)isoxazol-4-yl)vinyl)-2-oxabicyclo[2.2.2]octan-1-yl)-1,2,4-oxadiazol-3-yl)-5-(trifluoromethyl)benzoic acid] gave an EC50 of 0.12 µM.

Turning to `O=C(O)c1cc(OC(F)F)cc(-c2noc(C34CCC(/C=C/c5c(-c6c(Cl)cncc6Cl)noc5C5CC5)(CC3)CO4)n2)c1` [Example 479, (E)-3-(5-(4-(2-(5-cyclopropyl-3-(3,5-dichloropyridin-4-yl)isoxazol-4-yl)vinyl)-2-oxabicyclo[2.2.2]octan-1-yl)-1,2,4-oxadiazol-3-yl)-5-(difluoromethoxy)benzoic acid], the half-maximal effective concentration (EC50) worked out at 0.36 µM.

For the compound `CC(C)(C(N)=O)c1ccc(C23CCC(/C=C/c4c(-c5ccccc5C(F)(F)F)noc4C4CC4)(CC2)CO3)cc1` [Example 480, (E)-2-(4-(4-(2-(5-cyclopropyl-3-(2-(trifluoromethyl)phenyl)isoxazol-4-yl)vinyl)-2-oxabicyclo[2.2.2]octan-1-yl)phenyl)-2-methylpropanamide], a half-maximal effect (EC50) was put at 1 µM.

`CC(C)(C(N)=O)c1ccc(C23CCC(/C=C/c4c(-c5c(Cl)cncc5Cl)noc4C4CC4)(CC2)CO3)cc1` [Example 481, (E)-2-(4-(4-(2-(5-cyclopropyl-3-(3,5-dichloropyridin-4-yl)isoxazol-4-yl)vinyl)-2-oxabicyclo[2.2.2]octan-1-yl)phenyl)-2-methylpropanamide] came in with an EC50 of 0.51 µM.

The compound `CC(C)(C(=O)O)c1ccc(C23CCC(/C=C/c4c(-c5c(Cl)cncc5Cl)noc4C4CC4)(CC2)CO3)cc1` [Example 482, (E)-2-(4-(4-(2-(5-cyclopropyl-3-(3,5-dichloropyridin-4-yl)isoxazol-4-yl)vinyl)-2-oxabicyclo[2.2.2]octan-1-yl)phenyl)-2-methylpropanoic acid] yielded a 50% effective concentration (EC50) of 0.95 µM.

Compound `COc1cncc(Cl)c1-c1noc(C2CC2)c1/C=C/C12CCC(c3ccc(C(C)(C)C(=O)O)cc3)(CC1)OC2` [Example 483, (E)-2-(4-(4-(2-(3-(3-chloro-5-methoxypyridin-4-yl)-5-cyclopropylisoxazol-4-yl)vinyl)-2-oxabicyclo[2.2.2]octan-1-yl)phenyl)-2-methylpropanoic acid] returned an EC50 of 4.5 µM.

The compound `O=C(O)c1cccc(OCC23CCC(COCc4c(-c5c(Cl)cccc5Cl)noc4C4CC4)(CC2)CC3)c1` [Example 484, 3-((4-(((5-cyclopropyl-3-(2,6-dichlorophenyl)isoxazol-4-yl)methoxy)methyl)bicyclo[2.2.2]octan-1-yl)methoxy)benzoic acid] returned an EC50 of 0.2 µM.

As to `O=C(O)c1cc(-c2noc(C34CCC(COCc5c(-c6c(Cl)cncc6Cl)noc5C5CC5)(CC3)CC4)n2)cc(C(F)(F)F)c1` [Example 485, 3-(5-(4-(((5-cyclopropyl-3-(3,5-dichloropyridin-4-yl)isoxazol-4-yl)methoxy)methyl)bicyclo[2.2.2]octan-1-yl)-1,2,4-oxadiazol-3-yl)-5-(trifluoromethyl)benzoic acid], the EC50 came to 0.38 µM.

`O=C(O)c1ccc(F)c(-c2noc(C34CCC(COCc5c(-c6c(Cl)cncc6Cl)noc5C5CC5)(CC3)CC4)n2)c1` [Example 486, 3-(5-(4-(((5-cyclopropyl-3-(3,5-dichloropyridin-4-yl)isoxazol-4-yl)methoxy)methyl)bicyclo[2.2.2]octan-1-yl)-1,2,4-oxadiazol-3-yl)-4-fluorobenzoic acid] had an EC50 of 2.7 µM.

As to `COc1ccc(C(=O)O)cc1-c1noc(C23CCC(COCc4c(-c5c(Cl)cncc5Cl)noc4C4CC4)(CC2)CC3)n1` [Example 487, 3-(5-(4-(((5-cyclopropyl-3-(3,5-dichloropyridin-4-yl)isoxazol-4-yl)methoxy)methyl)bicyclo[2.2.2]octan-1-yl)-1,2,4-oxadiazol-3-yl)-4-methoxybenzoic acid], a half-maximal response (EC50) required 5.4 µM.

`N#Cc1cc(C(F)(F)F)cc(C23CCC(COCc4c(-c5c(Cl)cncc5Cl)noc4C4CC4)(CC2)CO3)c1` [Example 488, 3-(4-(((5-cyclopropyl-3-(3,5-dichloropyridin-4-yl)isoxazol-4-yl)methoxy)methyl)-2-oxabicyclo[2.2.2]octan-1-yl)-5-(trifluoromethyl)benzonitrile] came in with an EC50 of 2.4 µM.

For `NC(=O)c1cc(C(F)(F)F)cc(C23CCC(COCc4c(-c5c(Cl)cncc5Cl)noc4C4CC4)(CC2)CO3)c1` [Example 489, 3-(4-(((5-cyclopropyl-3-(3,5-dichloropyridin-4-yl)isoxazol-4-yl)methoxy)methyl)-2-oxabicyclo[2.2.2]octan-1-yl)-5-(trifluoromethyl)benzamide], the concentration giving a half-maximal response (EC50) is 1.4 µM.
